# Experimental data from patent EP0269947B2, “Antiviral phosphonomethoxyalkylene purine and pyrimidine derivatives” (priority 1986, dated 1988).
# What was measured:
# Set-up in all cases: unit not given here
# [1] = system: Murine leukemia virus (MuLV); test: UV-XC plaque assay against murine retroviruses; assay type: cell-based; details: MuLV in SC-1 cells
# Description: The compounds wore evaluated for antiviral activity against Murine leukemia virus (MuLV) strains using the UV-XC plaque assay (Rowe, et al., "Virology," 42:1136, 1970).
# The MuLV strains were grown in feral mouse cells (SC-1) and used for antiviral tests using the UV-XC plaque assay. Briefly, SC-1 coils are grown as monolayers in 4-well tissue culture plates and inoculated with approximately 50-100 plaque forming units of MuLV in 0.5 ml of 5% EMEM containing 20 ug/ml DEAE/Dextran. After 1 hr. adsorbtion, the inoculum is removed and 5 ml of 5% EMEM containing three-fold dilutions of the appropriate drug are added. Five days later, the cultures are UV-irradiated with an ultraviolet lamp and rat XC sarcoma cells are added to the cultures. Three-four days after UV-irradiation, the cell cultures are stained with Giemsa stain and the plaques are enumerated. Antiviral activity is expressed in terms of the reduction in the mean number of UV-XC plaques counted in the drug treated, virus-infected cultures compared with mean number of plaques counted in untreated, virus-infected control cultures. The ID50 for each drug was determined.
# HSV-1 [2] = test: Plaque reduction assay, herpes simplex virus type 1; assay type: cell-based, Herpes simplex virus (HSV); details: vero cells, 48-hour incubation; concentration reducing number of plaques by 50%
# Description: (§1) Herpes simplex virus (HSV) strains wars grown and titered at 37°C in vero cells (African Green Monkey Kidney cells) and used for virus work before the tenth passage.
# (§2) Cells were grown and maintained in Earle's Minimum Essential Medium (EMEM), Gibco Laboratories, supplemented with 0.75% sodium bicarbonate, 2mM 1-glutamine, Pen-strep. and 5-10% fetal calf serum.
# (§3) The titer of HSV strains is determined by a plaque titration method (Roizman and Roane,"Virology," 15:75-79, 1961). Tissue culture 24-well petri dishes are seeded with cells and used for assays when approximately 75% monolayer. Volumes (0.1ml) of logarithmic dilutions of the virus strain are inoculated onto each of triplicate wells, and absorbed for one hour with intermittent shaking. The inoculum thereafter is removed, and 1 ml of 5-10% EMEM containing 0.3% human immune serum globulin is added. After a 48 hr. incubation period at 37°C in a 5% CO2 atmosphere, the overlay medium is removed and the cell sheets stained with Giemsa stain. The number of plaques is counted, the triplicate is averaged, and the number of plaque-forming units per ml is calculated.
# (§4) The compounds are tested for activity against the herpes simplex strains using a stock solution of each compound freshly prepared. Appropriate dilution of each compound are made in 10% EMEM before usage. The antiviral efficacy of each compound is determined using the plaque reduction assay described above. Briefly, tissue culture 24-well plates, with approximately 75% cell monolayer are inoculated with approximately 50 plaque forming units of HSV per 0.1 ml, and the virus adsorbed for 1 hr, with intermittent shaking. After removal of the inoculum, 1 ml of 10% EMEM containing two-fold dilutions of the appropriate drug are added in triplicates. Triplicate wells/plate receives no drug and are used as a virus control. After a 48-hour incubation period, at 37°C in a 5% CO2 atmosphere, the overlay medium is removed, the cells stained as described above, and plaques are counted. The counts of triplicate wells are averaged, and the number of plaques in the presence of each drug dilution are calculated.
# (§5) The antiviral potency of the drug is determined by ID50, the drug concentration necessary to reduce the number of plaques by 50% of those in the virus control cultures.
# HSV-2 [3] = test: Plaque reduction assay, herpes simplex virus type 2; assay type: cell-based, Herpes simplex virus (HSV); details: vero cells, 48-hour incubation; concentration reducing number of plaques by 50%
# Description: as §1, §2, §3, §4, §5
# HSV-1 [4] = test: Colorimetric dye-uptake assay (neutral red), herpes simplex virus type 1; assay type: cell-based, Herpes simplex virus (HSV); details: vero cells, 48 hr incubation, neutral red stain; ID50 by linear regression
# Description: as §1, §2
# (§6) For the primary screening, a colorimetric dye-uptake assay (McLaren, C., et al., "Antiviral Research," 3:323, 1983) is used employing rapidly growing vero cells. Briefly, cells, compound and virus dilutions are added onto 96-well tissue culture plates simultaneously using the cells, viruses and medium described above. After 48 hr. incubation at 37°C in 5% CO2 atmosphere, the overlay medium is removed and the cell sheets are stained with 0.04% neutral red solution. After 30 min. incubation at 37°C, the cell sheets are washed and the stain is eluted with 0.05 M sodium monophosphate in 47% ethanol and the O.D. is determined at 540 nm wave length.
# (§7) The 50% inhibitory dose (ID50) for each drug is determined by linear regression analysis.
# HSV-2 [5] = test: Colorimetric dye-uptake assay (neutral red), herpes simplex virus type 2; assay type: cell-based, Herpes simplex virus (HSV); details: vero cells, 48 hr incubation, neutral red stain; ID50 by linear regression
# Description: as §1, §2, §6, §7
# [6] = system: Human cytomegalovirus (HCMV) strain (AD169); test: Plaque reduction assay against human cytomegalovirus; assay type: cell-based; details: HCMV strain AD169 in MRC-5 cells
# Description: as §3, §4, §5
# Human cytomegalovirus (HCMV) strain (AD169) was grown and titered at 37° in human embryonic lung (diploid) cells, MRC-5, and used for the antiviral assay.
# The compounds are tested for activity against the HCMV using the procedure for the plaque reduction assay described above.
Compound,Muly ID50 [1],Plaque Reduction HSV-1 ID50 (HSV-1 [2]),Plaque Reduction HSV-2 ID50 (HSV-2 [3]),Dye-Uptake HSV-1 ID50 (HSV-1 [4]),Dye-Uptake HSV-2 ID50 (HSV-2 [5]),CMV ID50 [6]
CC(C)OP(=O)(O)COCCn1cnc2c(=O)[nH]c(N)nc21 [Ex. 34],1.72,74.9,34.8,,,
COP(=O)(O)COCCn1cnc2c(=O)[nH]c(N)nc21 [Ex. 32],0.05,1.6,1.2,1.5,3.8,
"Nc1nc2c(ncn2COC(CO)CO)c(=O)[nH]1 [9-(1,3-Dihydroxypropoxymethyl)guanine, reference compound]",,,,,,1.2
"Nc1nc2c(ncn2COCCO)c(=O)[nH]1 [Acyclovir, reference compound]",,0.3,1.5,0.5,1.0,
"Cc1cn([C@H]2C[C@H](N=[N+]=[N-])[C@@H](CO)O2)c(=O)[nH]c1=O [3'-Azido-3'-deoxythymidine, reference compound]",0.0001,,,,,
CCCOP(=O)(O)COCCn1cnc2c(=O)[nH]c(N)nc21 [Ex. 33],,9.7,9.9,,,
"Nc1ncnc2c1ncn2C[C@@H](CO)OCP(=O)(O)O [(S)-9-(3-Hydroxy-2-phosphonomethoxy)propyl adenine, reference compound]",2.0,13.8,35.8,15.1,> 25,0.13
Nc1ncc2ncn(CCOCP(=O)(O)O)c2n1 [Ex. 25],,,,,,<0.032
Nc1nc2c(ncn2CCCOCP(=O)(O)O)c(=O)[nH]1 [Ex. 18],0.04,,,,,6.0
"CCOP(=O)(O)COCCn1cnc2c(=O)[nH]c(N)nc21 [Ex. 7, 9-(2-(Monoethylphosphonomethoxy)ethyl)guanine]",0.56,4.8,5.1,12,8,0.23
CC(COCP(=O)(O)O)n1cnc2c(=O)[nH]c(N)nc21 (centres unmarked) [Ex. 13],,3.0,3.3,8.7,10.4,
